In patent US20260176284A1, “Compounds with Anti-KRAS Mutated Tumor Activity” (Trasveda Ltd., priority 2022, published 2026):

Test system: KRAS G12D mutated AGS human gastric adenocarcinoma cells
Test: Proliferation inhibition of KRAS G12D mutant AGS cells, another experiment with similar protocol (includes MRTX1133)
Type: cell-based
Details: Homo sapiens
Description: In another experiment, using a protocol similar to the one described above, the inhibitory activity of some representative compounds of the present invention against KRAS G12D mutated AGS human gastric adenocarcinoma cells was determined.
The synthesis of compound MRTX1133 was performed according to the method described in J. Med. Chem. 2022, 65, 4, 3123-3133.

Row | SMILES | IC50 [nM]
1 | C#Cc1c(F)ccc2cc(O)cc(-c3c(F)cc4c(N5CC6CCC(C5)N6)nc(OC[C@]5(C)CN(C)CCC5=C)nc4c3F)c12 (atropisomer, axis not shown; (Ra)) [Example 40, (Ra)-4-(4-((1R,5S)-3,8-diazabicyclo[3.2.1]octan-3-yl)-2-(((S)-1,3-dimethyl-4-methylenepiperidin-3-yl)methoxy)-6,8-difluoroquinazolin-7-yl)-5-ethynyl-6-fluoronaphthalen-2-ol] | 9
2 | C#Cc1c(F)ccc2cc(O)cc(-c3c(F)cc4c(N5CC6CCC(C5)N6)nc(OC[C@]5(C)CN(C)CC[C@@H]5CF)nc4c3F)c12 (atropisomer, axis not shown; (Ra)) [Example 45-3] | 5
3 | C#Cc1c(F)ccc2cc(O)cc(-c3c(F)cc4c(N5CC6CCC(C5)N6)nc(OC[C@]5(C)CN(C6CC6)CCC5(F)F)nc4c3F)c12 (atropisomer, axis not shown; (Ra)) [Example 49, (Ra)-4-(4-((1R,5S)-3,8-diazabicyclo[3.2.1]octan-3-yl)-2-(((S)-1-cycloprop-yl-4,4-difluoro-3-methylpiperi-din-3-yl)methoxy)-6,8-difluoroquinazolin-7-yl)-5-ethynyl-6-fluoronaph-thalen-2-ol] | 386
4 | C#Cc1c(F)ccc2cc(O)cc(-c3c(F)cc4c(N5CC6CCC(C5)N6)nc(OC[C@]5(C)CN(CC)CC[C@@H]5F)nc4c3F)c12 (atropisomer, axis not shown; (Ra)) [Example 50-1, (Ra)-4-(4-((1R,5S)-3,8-diazabicyclo[3.2.1]octan-3-yl)-2-(((35,4S)-1-ethyl-4-fluoro-3-methylpiper-idin-3-yl)methoxy)-6,8-difluoroquinazolin-7-yl)-5-ethynyl-6-fluoronaph-thalen-2-ol] | 15
5 | C#Cc1c(F)ccc2cc(O)cc(-c3c(F)cc4c(N5CC6CCC(C5)N6)nc(OC[C@]5(C)CN(CC)CC[C@H]5F)nc4c3F)c12 (atropisomer, axis not shown; (Ra)) [Example 50-3, (Ra)-4-(4-((1R,5S)-3,8-diazabicyclo[3.2.1]octan-3-yl)-2-(((35,4R)-1-ethyl-4-fluoro-3-methylpiperi-din-3-yl)methoxy)-6,8-difluoroquinazolin-7-yl)-5-ethynyl-6-fluoronaph-thalen-2-ol] | 7
6 | C#Cc1c(F)ccc2cc(O)cc(-c3c(F)cc4c(N5CC6CCC(C5)N6)nc(OC[C@]5(C)CN(CC)CC[C@@H]5C)nc4c3F)c12 (atropisomer, axis not shown; (Ra)) [Example 52-1, (Ra)-4-(4-((1R,5S)-3,8-diazabicyclo[3.2.1]octan-3-yl)-2-(((35,4S)-1-ethyl-3,4-dimethyl-piperidin-3-yl)methoxy)-6,8-difluoroquinazolin-7-yl)-5-ethynyl-6-fluoro-naphthalen-2-ol] | 10
7 | C#Cc1c(F)ccc2cc(O)cc(-c3c(F)cc4c(N5CC6CCC(C5)N6)nc(OC[C@]5(C)CN(CC)CCC5=C)nc4c3F)c12 (atropisomer, axis not shown; (Ra)) [Example 63, (Ra)-4-(4-((1R,5S)-3,8-diazabicyclo[3.2.1]octan-3-yl)-2-(((S)-1-ethyl-3-methyl-4-methylenepiperi-din-3-yl)methoxy)-6,8-difluoroquinazolin-7-yl)-5-ethynyl-6-fluoronaph-thalen-2-ol] | 11
8 | C#Cc1c(F)ccc2cc(O)cc(-c3ncc4c(N5CC6CCC(C5)N6)nc(OC[C@]5(CC)CN(C)CC[C@@H]5C(F)F)nc4c3F)c12 (racemic) [Example 396, (±)4-(4-((1R,5S)-3,8-diazabicyclo[3.2.1]octan-3-yl)-2-(((3S,4S)-4-(difluoromethyl)-3-ethyl-1-methylpiperidin-3-yl)methoxy)-8-fluoropyrido[4,3-A]pyrimidin-7-yl)-5-ethynyl-6-fluoronaphthalen-2-ol] | 11
9 | Cc1cc(N)c(C#N)c(-c2c(F)cc3c(N4C[C@H]5CC[C@@H](C4)N5)nc(OC[C@]4(C)CN(C)CC[C@@H]4CF)nc3c2F)c1C(F)(F)F (single isomer, unassigned) [Example 85-2] | 38
10 | CN1CC[C@H](CF)[C@](C)(COc2nc(N3CC4CCC(C3)N4)c3cc(F)c(-c4c(C#N)c(N)cc(Cl)c4C(F)(F)F)c(F)c3n2)C1 (single isomer, unassigned) [Example 122-1, (Ra or Sa)-2-(4-((1R,5S)-3,8-diazabicyclo[3.2.1]octan-3-yl)-6,8-difluoro-2-(((3S,4S)-4-(fluoromethyl)-1,3-dimethylpiperidin-3-yl)methoxy)quinazolin-7-yl)-6-amino-4-chloro-3-(trifluoromethyl) benzonitrile·trifluoroacetate] | 34
11 | CN1CC/C(=C\F)[C@](C)(COc2nc(N3CC4CCC(C3)N4)c3cc(Cl)c(-c4cccc5sc(N)c(C#N)c45)c(F)c3n2)C1 (single isomer, unassigned) [Example 313-2] | 17
12 | [2H]C([2H])([2H])N1CC[C@H](C(F)F)[C@](C)(C([2H])([2H])Oc2nc(N3CC4CCC(C3)N4)c3cc(Cl)c(-c4cccc5sc(N)c(C#N)c45)c(F)c3n2)C1 (single isomer, unassigned) [Example 315-2] | 13
13 | CN1CC/C(=C\F)[C@](C)(COc2nc(N3CC4CCC(C3)N4)c3cc(C(F)(F)F)c(-c4cccc5sc(N)c(C#N)c45)c(F)c3n2)C1 (single isomer, unassigned) [Example 318-1] | 9
14 | CN1CC/C(=C\F)[C@](C)(COc2nc(N3C[C@H]4CC[C@@H](C3)N4)c3cc(C(F)(F)F)c(-c4c(F)ccc5sc(N)c(C#N)c45)c(F)c3n2)C1 (single isomer, unassigned) [Example 362-1] | 5
15 | CN1CC[C@H](C(F)F)[C@](C)(COc2nc(N3C[C@H]4CC[C@@H](C3)N4)c3cc(C(F)(F)F)c(-c4c(F)ccc5sc(N)c(C#N)c45)c(F)c3n2)C1 (single isomer, unassigned) [Example 363-1] | 4
16 | [2H]C([2H])([2H])[C@@]1(COc2nc(N3CC4CCC(C3)N4)c3cnc(-c4cc(O)cc5ccc(F)c(C#C)c45)c(F)c3n2)CN(C)CC[C@@H]1C(F)F (single isomer, unassigned) [Example 426, (Sa) or (Ra)-4-(4-((1R,5S)-3,8-diazabicyclo[3.2.1]octan-3-yl)-2-(((3S,4S)-4-(difluoromethyl)-1-methyl-3-(methyl-d3)piperidin-3-yl)methoxy)-8-fluoropyrido[4,3-d]pyrimidin-7-yl)-5-ethynyl-6-fluoronaphthalen-2-ol] | 7
17 | CN1CCC(F)(F)[C@](C)(COc2nc(N3CC4CCC(C3)N4)c3cc(F)c(-c4cc(O)cc(Cl)c4C4CC4)c(F)c3n2)C1 [Example 29-1A, 3-(4-((1R,5S)-3,8-diazabicyclo[3.2.1]octane-3-yl)-2-(((S)-4,4-difluoro-1,3-dimethylpiperidin-3-yl)methoxy)-6,8-difluoroquinolin-7-yl)-5-chloro-4-cyclopropylphenol·diformate] | 630
18 | C#Cc1c(F)ccc2cc(O)cc(-c3ncc4c(N5CC6CCC(C5)N6)nc(OC[C@]5(C)CN(C)CC[C@@H]5F)nc4c3F)c12 [Example 67-1] | 77
19 | C#Cc1c(F)ccc2cc(O)cc(-c3ncc4c(N5CC6CCC(C5)N6)nc(OC[C@]5(C)CN(C)CC[C@H]5F)nc4c3F)c12 [Example 67-3] | 17
20 | C#Cc1c(F)ccc2cc(O)cc(-c3ncc4c(N5CC6CCC(C5)N6)nc(OC[C@]5(C)CN(C)CC[C@@H]5CF)nc4c3F)c12 [Example 71-2] | 8
21 | C#Cc1c(F)ccc2cc(O)cc(-c3c(F)cc4c(N5C[C@H]6CC[C@@H](C5)N6)nc(OC[C@]5(C)CN(CC)CC/C5=C\F)nc4c3F)c12 [Example 79, 4-(4-((1R,5S)-3,8-diazabicyclo[3.2.1]octan-3-yl)-2-(((S,E)-1-ethyl-4-(fluoromethylene)-3-methylpiperidin-3-yl)methoxy)-6,8-difluoroquinazoline-7-yl)-5-ethynyl-6-fluoronaphthalene-2-ol] | 4
22 | C#Cc1c(F)ccc2cc(O)cc(-c3c(F)cc4c(N5C[C@H]6CC[C@@H](C5)N6)nc(OC[C@]5(C)CN(C)CCC56CC6)nc4c3F)c12 [Example 88, 4-(4-((1R,5S)-3,8-diazabicyclo[3.2.1]octan-3-yl)-2-(((S)-4,6-dimethyl-6-azaspiro[2.5]octan-4-yl)methoxy)-6,8-difluoroquinazolin-7-yl)-5-ethynyl-6-fluoronaphthalen-2-ol] | 17
23 | C#Cc1c(F)ccc2cc(O)cc(-c3c(F)cc4c(N5C[C@H]6CC[C@@H](C5)N6)nc(OC[C@]5(C)CN(CC)CCC56CC6)nc4c3F)c12 [Example 95, 4-(4-((1R,5S)-3,8-diazabicyclo[3.2.1]octan-3-yl)-2-(((S)-6-ethyl-4-methyl-6-azaspiro[2.5]octan-4-yl)methoxy)-6,8-difluoroquinazolin-7-yl)-5-ethynyl-6-fluoronaphthalen-2-ol] | 8
24 | CCc1c(F)ccc2cc(O)cc(-c3c(F)cc4c(N5CC6CCC(C5)N6)nc(OC[C@]5(C)CN(C)CC[C@@H]5CF)nc4c3F)c12 [Example 99-1] | 18
25 | CN1CC[C@H](C(F)F)[C@](C)(COc2nc(N3C[C@H]4CC[C@@H](C3)N4)c3cc(F)c(-c4cccc5sc(N)c(C#N)c45)c(F)c3n2)C1 [Example 190, 4-(4-((1R,5S)-3,8-diazabicyclo[3.2.1]octan-3-yl)-2-(((3S,4S)-4-(difluoromethyl)-1,3-dimethylpiperidin-3-yl)methoxy)-6,8-difluoroquinazolin-7-yl)-2-aminobenzo[b]thiophene-3-nitrile] | 47
26 | CN1CC/C(=C\F)[C@](C)(COc2nc(N3CC4CCC(C3)N4)c3cc(F)c(-c4cccc5sc(N)c(C#N)c45)c(F)c3n2)C1 [Example 194] | 97
27 | C#Cc1c(F)ccc2cc(O)cc(-c3nc(OC)c4c(N5C[C@H]6CC[C@@H](C5)N6)nc(OC[C@]5(C)CN(C)CCC5=C)nc4c3F)c12 [Example 258, 4-(4-((1R,5S)-3,8-diazabicyclo[3.2.1]octan-3-yl)-2-(((S)-1,3-dimethyl-4-methylenepiperidin-3-yl)methoxy)-8-fluoro-5-methoxypyrido[4,3-d]pyrimidin-7-yl)-5-ethynyl-6-fluoronaphthalen-2-ol] | 8
